Experimental data as given in US20080274892A1, “Novel Haloalkylsulfonanilide Derivative, Herbicide, and Method of Use Thereof” (priority 2005, published 2008).

Columns and labels:
[1] = test system: bulrush; experiment: Test Example 1: herbicidal efficacy on rice paddy weeds pre-emergence; format: in vivo, Scirpus juncoides; conditions: 21 days
Experimental: (§1) A 75 cm^2 plastic pot was filled with soil (clay loam) and planted seeds of bulrush which is a rice paddy weed. After covering the top with 75 cm^3 soil mixed with seeds of false pimpernel, the pot was filled with water so that the soil submerged under 5 cm depth of water. The predetermined effective dosage ([…]) of a formulation containing the compound of the present invention prepared according to Formulation Example 1-4 as an active ingredient was diluted in water and added to the pot water surface dropwise. The pot was kept in a hot house for 21 days and the herbicidal efficacy was investigated. The herbicidal efficacy was evaluated according to the following standard by comparing with untreated control. “-” in the table represents test not done.
(§2) The standard of judgment for herbicidal efficacy (degree of growth inhibition) and phytotoxicity 4 . . . 90%-100% of herbicidal efficacy or phytotoxicity 3 . . . 70%-89% of herbicidal efficacy or phytotoxicity 2 . . . 40%-69% of herbicidal efficacy or phytotoxicity 1 . . . 1%-39% of herbicidal efficacy or phytotoxicity 0 . . . 0% of herbicidal efficacy or phytotoxicity

[2] = test system: bulrush; experiment: Test Example 2: herbicidal efficacy on rice paddy weeds post-emergence; format: in vivo, Scirpus juncoides; conditions: 21 days after treatment
Excerpt: as §2
(§3) A 75 cm^2 plastic pot was filled with soil (clay loam) and planted seeds of barnyard glass and bulrush which is a rice paddy weed. After covering the top with 75 cm^3 soil mixed with seeds of false pimpernel, the pot was filled with water so that the soil submerged under 5 cm depth of water and kept in a hot house. […] The pot was kept in a hot house for 21 days after the treatment and the herbicidal efficacy was investigated and evaluated according to the standard in Test Example 1 by comparing with the untreated control. “-” in the table represents test not done.

[3] = test system: false pimpernel; experiment: as above; format: in vivo, Lindernia pyxidaria; conditions: 21 days after treatment
Excerpt: as §2, §3

[4] = test system: paddy rice plant (cultivar: Nihonbare); experiment: Test Example 3: phytotoxicity test for transplanted paddy rice plant; format: in vivo; conditions: 21 days after treatment; for Phytotoxicity to paddy rice: transplanted rice
Experimental: as §2
A 75 cm^2 plastic pot was filled with soil (clay loam), and water was added so that the soil was submerged under 5 cm depth of water. Two paddy rice plant (cultivar: Nihonbare) at two leaves stage were transplanted at the depth of 1 cm and kept in a hot house. […] The pot was kept in a hot house for 21 days after the treatment and the phytotoxicity was investigated and evaluated according to the standard in Test Example 1 by comparing with the untreated control. “-” in the table represents test not done.

[5] = test system: false pimpernel; experiment: Test Example 1: herbicidal efficacy on rice paddy weeds pre-emergence; format: in vivo, Lindernia pyxidaria; conditions: 21 days
Experimental: as §1, §2

[6] = dosage 1000 g/ha active ingredient, post-emergence treatment at one leaf stage, vs untreated control
[7] = dosage 1000 g/ha, post-emergence, one leaf stage
[8] = dosage 1000 g/ha, treated 5 days after transplantation
[9] = dosage 300 g/ha, post-emergence, one leaf stage

Row | Compound | Bulrush pre (herbicidal efficacy grade) ([1]; dosage 1000 g/ha) | False pimpernel pre (herbicidal efficacy grade) ([5]; dosage 1000 g/ha) | Bulrush post (herbicidal efficacy grade) [2, 7] | False pimpernel post (herbicidal efficacy grade) [3, 7] | Phytotoxicity to paddy rice [4, 8] | Bulrush pre (herbicidal efficacy grade) ([1]; dosage 300 g/ha) | False pimpernel pre (herbicidal efficacy grade) ([5]; dosage 300 g/ha) | Bulrush post (herbicidal efficacy grade) [2, 9] | False pimpernel post (herbicidal efficacy grade) [3, 9] | Phytotoxicity to paddy rice ([4]; dosage 300 g/ha) | also measured
1 | COCOc1cccc(CN2CC(C)(C)OC2=O)c1N(C(=O)OCC(C)C)S(=O)(=O)C(F)(F)F [1-213] | – | – | – | – | – | – | – | – | – | – | Bulrush pre (herbicidal efficacy grade) ([1]; dosage 1000 g/ha active ingredient, vs untreated control): 4 (90%-100% of herbicidal efficacy or phytotoxicity); Bulrush post (herbicidal efficacy grade) [2, 6]: 4 (90%-100% of herbicidal efficacy or phytotoxicity); False pimpernel post (herbicidal efficacy grade) [3, 6]: 2 (40%-69% of herbicidal efficacy or phytotoxicity); Phytotoxicity to paddy rice (grade) ([4]; dosage 1000 g/ha active ingredient, treated 5 days after transplantation, vs untreated control): 1 (1%-39% of herbicidal efficacy or phytotoxicity)
2 | COCC1CN(Cc2ccccc2NS(=O)(=O)C(F)(F)F)C(=O)O1 (stereo not shown) [Compound 1-35] | 4 (90%-100% of herbicidal efficacy or phytotoxicity) | 4 (90%-100% of herbicidal efficacy or phytotoxicity) | 4 (90%-100% of herbicidal efficacy or phytotoxicity) | 4 (90%-100% of herbicidal efficacy or phytotoxicity) | 1 (1%-39% of herbicidal efficacy or phytotoxicity) | – | – | – | – | – | –
3 | CC1(C)CN(Cc2ccccc2N(C(=O)OCc2ccccc2)S(=O)(=O)C(F)(F)F)C(=O)O1 [Compound 1-83] | – | – | – | – | – | 4 (90%-100% of herbicidal efficacy or phytotoxicity) | 1 (1%-39% of herbicidal efficacy or phytotoxicity) | 4 (90%-100% of herbicidal efficacy or phytotoxicity) | 1 (1%-39% of herbicidal efficacy or phytotoxicity) | 0 (0% of herbicidal efficacy or phytotoxicity) | –
4 | CCCCCCCCCCCCCCCCOC(=O)N(c1ccccc1CN1CC(C)(C)OC1=O)S(=O)(=O)C(F)(F)F [Compound 1-84] | – | – | – | – | – | 4 (90%-100% of herbicidal efficacy or phytotoxicity) | 4 (90%-100% of herbicidal efficacy or phytotoxicity) | 3 (70%-89% of herbicidal efficacy or phytotoxicity) | 4 (90%-100% of herbicidal efficacy or phytotoxicity) | 1 (1%-39% of herbicidal efficacy or phytotoxicity) | –
5 | O=C1OC2(CC2)CN1Cc1ccccc1NS(=O)(=O)C(F)(F)F [Compound 1-88] | – | – | – | – | – | 4 (90%-100% of herbicidal efficacy or phytotoxicity) | 4 (90%-100% of herbicidal efficacy or phytotoxicity) | 4 (90%-100% of herbicidal efficacy or phytotoxicity) | 4 (90%-100% of herbicidal efficacy or phytotoxicity) | 1 (1%-39% of herbicidal efficacy or phytotoxicity) | –
6 | CC(C)COC(=O)N(c1ccccc1CN1CC(C)(c2ccccc2)OC1=O)S(=O)(=O)C(F)(F)F (stereo not shown) [Compound 1-141] | – | – | – | – | – | 3 (70%-89% of herbicidal efficacy or phytotoxicity) | 4 (90%-100% of herbicidal efficacy or phytotoxicity) | 4 (90%-100% of herbicidal efficacy or phytotoxicity) | 4 (90%-100% of herbicidal efficacy or phytotoxicity) | 1 (1%-39% of herbicidal efficacy or phytotoxicity) | –
7 | CC(C)COC(=O)N(c1ccccc1CN1CC(C)(C2CCCCC2)OC1=O)S(=O)(=O)C(F)(F)F (stereo not shown) [Compound 1-156] | – | – | – | – | – | 4 (90%-100% of herbicidal efficacy or phytotoxicity) | 4 (90%-100% of herbicidal efficacy or phytotoxicity) | 4 (90%-100% of herbicidal efficacy or phytotoxicity) | 4 (90%-100% of herbicidal efficacy or phytotoxicity) | 1 (1%-39% of herbicidal efficacy or phytotoxicity) | –
8 | CC(C)=CC1(C)CN(Cc2ccccc2NS(=O)(=O)C(F)(F)F)C(=O)O1 (stereo not shown) [Compound 1-164] | 4 (90%-100% of herbicidal efficacy or phytotoxicity) | 4 (90%-100% of herbicidal efficacy or phytotoxicity) | 4 (90%-100% of herbicidal efficacy or phytotoxicity) | 4 (90%-100% of herbicidal efficacy or phytotoxicity) | 1 (1%-39% of herbicidal efficacy or phytotoxicity) | – | – | – | – | – | –
9 | CC(C)=CC1(C)CN(Cc2ccccc2N(C(=O)OCC(C)C)S(=O)(=O)C(F)(F)F)C(=O)O1 (stereo not shown) [Compound 1-165] | 4 (90%-100% of herbicidal efficacy or phytotoxicity) | 4 (90%-100% of herbicidal efficacy or phytotoxicity) | 4 (90%-100% of herbicidal efficacy or phytotoxicity) | 4 (90%-100% of herbicidal efficacy or phytotoxicity) | 1 (1%-39% of herbicidal efficacy or phytotoxicity) | – | – | – | – | – | –
10 | COC(=O)N(c1ccccc1CN1CC(C)(C=C(C)C)OC1=O)S(=O)(=O)C(F)(F)F (stereo not shown) [Compound 1-166] | 4 (90%-100% of herbicidal efficacy or phytotoxicity) | 4 (90%-100% of herbicidal efficacy or phytotoxicity) | 4 (90%-100% of herbicidal efficacy or phytotoxicity) | 4 (90%-100% of herbicidal efficacy or phytotoxicity) | 2 (40%-69% of herbicidal efficacy or phytotoxicity) | – | – | – | – | – | –
11 | CC1(COCc2ccccc2)CN(Cc2ccccc2NS(=O)(=O)C(F)(F)F)C(=O)O1 (stereo not shown) [Compound 1-173] | 4 (90%-100% of herbicidal efficacy or phytotoxicity) | 4 (90%-100% of herbicidal efficacy or phytotoxicity) | 4 (90%-100% of herbicidal efficacy or phytotoxicity) | 4 (90%-100% of herbicidal efficacy or phytotoxicity) | 1 (1%-39% of herbicidal efficacy or phytotoxicity) | – | – | – | – | – | –
12 | CC1(C)OC1C1(C)CN(Cc2ccccc2NS(=O)(=O)C(F)(F)F)C(=O)O1 (stereo not shown) [Compound 1-176] | 4 (90%-100% of herbicidal efficacy or phytotoxicity) | 4 (90%-100% of herbicidal efficacy or phytotoxicity) | 4 (90%-100% of herbicidal efficacy or phytotoxicity) | 4 (90%-100% of herbicidal efficacy or phytotoxicity) | 1 (1%-39% of herbicidal efficacy or phytotoxicity) | – | – | – | – | – | –
13 | CC1OC(=O)N(Cc2ccccc2NS(=O)(=O)C(F)(F)F)C1=O (stereo not shown) [Compound 1-190] | – | – | – | – | – | 4 (90%-100% of herbicidal efficacy or phytotoxicity) | 4 (90%-100% of herbicidal efficacy or phytotoxicity) | 4 (90%-100% of herbicidal efficacy or phytotoxicity) | 2 (40%-69% of herbicidal efficacy or phytotoxicity) | 0 (0% of herbicidal efficacy or phytotoxicity) | –
14 | CC(C)COC(=O)N(c1ccccc1CN1C(=O)OC(C)C1=O)S(=O)(=O)C(F)(F)F (stereo not shown) [Compound 1-191] | – | – | – | – | – | 4 (90%-100% of herbicidal efficacy or phytotoxicity) | 4 (90%-100% of herbicidal efficacy or phytotoxicity) | 4 (90%-100% of herbicidal efficacy or phytotoxicity) | 2 (40%-69% of herbicidal efficacy or phytotoxicity) | 0 (0% of herbicidal efficacy or phytotoxicity) | –
15 | CCC1OC(=O)N(Cc2ccccc2N(C(=O)OCC(C)C)S(=O)(=O)C(F)(F)F)C1=O (stereo not shown) [Compound 1-193] | – | – | – | – | – | 4 (90%-100% of herbicidal efficacy or phytotoxicity) | 4 (90%-100% of herbicidal efficacy or phytotoxicity) | 4 (90%-100% of herbicidal efficacy or phytotoxicity) | 1 (1%-39% of herbicidal efficacy or phytotoxicity) | 0 (0% of herbicidal efficacy or phytotoxicity) | –
16 | CCOC1N(Cc2ccccc2NS(=O)(=O)C(F)(F)F)C(=O)OC1(C)C (stereo not shown) [Compound 1-198] | – | – | – | – | – | 4 (90%-100% of herbicidal efficacy or phytotoxicity) | – | – | – | 2 (40%-69% of herbicidal efficacy or phytotoxicity) | –
